US5432261A, “Motlin-like polypeptide and use thereof” (priority 1989, dated 1995)
Where two headings read alike, the source gives them in different places. Square brackets hold non-standard residues; d marks the D form. Peptide text beside a SMILES is read from it. hSer = N[C@@H](CCO)C(=O)O

Target: upper small intestine of rabbit (Oryctolagus cuniculus, UniProt G1T803)
Assay: Intestinal contraction activity by Magnus method using upper small intestine of rabbit
Experimental: An intestinal contraction activity was measured by Magnus method using upper small intestine of rabbit ["J. Pharm. Pharmac.", Vol. 28, pages 650-651 (1976)], on each motilin-like polypeptides (Example 1, wherein R1 is Hse, Asp-Gly-Ile-Phe-Hse, or Arg-Ile-Phe-Hse) according to the invention, as test samples and a conventional pure [Leu^13 ]-motilin, as control sample. The activities of the test samples and control sample were compared, under assumption of that an contraction activity caused by 10^-6 M acetylcholine is 100%.

Sequence of upper small intestine of rabbit (G1T803 1-400): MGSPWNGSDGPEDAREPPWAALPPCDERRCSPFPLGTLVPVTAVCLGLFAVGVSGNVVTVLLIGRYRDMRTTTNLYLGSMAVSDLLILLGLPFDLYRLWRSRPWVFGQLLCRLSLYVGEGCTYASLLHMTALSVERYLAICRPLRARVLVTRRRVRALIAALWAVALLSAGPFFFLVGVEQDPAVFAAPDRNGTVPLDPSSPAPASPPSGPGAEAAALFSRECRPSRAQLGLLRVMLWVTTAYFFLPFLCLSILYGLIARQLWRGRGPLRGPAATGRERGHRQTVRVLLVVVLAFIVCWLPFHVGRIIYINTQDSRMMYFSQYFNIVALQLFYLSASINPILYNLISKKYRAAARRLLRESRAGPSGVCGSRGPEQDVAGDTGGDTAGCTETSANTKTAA

Activity in vitro (%)	Structure (SMILES)	Activity in vitro (%) (Magnus method, from ED50, contraction activity of native motilin = 100%)
110	CC[C@H](C)[C@H](NC(=O)[C@H](CCC(=O)O)NC(=O)CNC(=O)[C@H](Cc1ccc(O)cc1)NC(=O)[C@@H](NC(=O)[C@H](Cc1ccccc1)NC(=O)[C@@H](NC(=O)[C@@H]1CCCN1C(=O)[C@@H](NC(=O)[C@@H](N)Cc1ccccc1)C(C)C)[C@@H](C)CC)[C@@H](C)O)C(=O)N[C@@H](CCC(N)=O)C(=O)N[C@@H](CCCNC(=N)N)C(=O)N[C@@H](CC(C)C)C(=O)N[C@@H](CCC(N)=O)C(=O)N[C@@H](CCC(=O)O)C(=O)N[C@@H](CCCCN)C(=O)N[C@@H](CCC(=O)O)C(=O)N[C@@H](CCCNC(=N)N)C(=O)N[C@@H](CC(N)=O)C(=O)N[C@@H](CCCCN)C(=O)NCC(=O)N[C@@H](CCC(N)=O)C(=O)N[C@@H](CCO)C(=O)O [(10) -Ile--Leu--Hse] (H-FVPIFTYGEIQRLQEKERNKGQ[hSer]-OH)	
	CC[C@H](C)[C@H](NC(=O)[C@@H]1CCCN1C(=O)[C@@H](NC(=O)[C@@H](N)Cc1ccccc1)C(C)C)C(=O)N[C@@H](Cc1ccccc1)C(=O)N[C@H](C(=O)N[C@@H](Cc1ccc(O)cc1)C(=O)NCC(=O)N[C@@H](CCC(=O)O)C(=O)N[C@@H](CC(C)C)C(=O)N[C@@H](CCC(N)=O)C(=O)N[C@@H](CCCNC(=N)N)C(=O)N[C@@H](CCSC)C(=O)N[C@@H](CCC(N)=O)C(=O)N[C@@H](CCC(=O)O)C(=O)N[C@@H](CCCCN)C(=O)N[C@@H](CCC(=O)O)C(=O)N[C@@H](CCCNC(=N)N)C(=O)N[C@@H](CC(N)=O)C(=O)N[C@@H](CCCCN)C(=O)NCC(=O)N[C@@H](CCC(N)=O)C(=O)O)[C@@H](C)O [motilin, reference compound]	100
110	CC[C@H](C)[C@H](NC(=O)[C@@H]1CCCN1C(=O)[C@@H](NC(=O)[C@@H](N)Cc1ccccc1)C(C)C)C(=O)N[C@@H](Cc1ccccc1)C(=O)N[C@H](C(=O)N[C@@H](Cc1ccc(O)cc1)C(=O)NCC(=O)N[C@@H](CCC(=O)O)C(=O)N[C@@H](CC(C)C)C(=O)N[C@@H](CCC(=O)O)C(=O)N[C@@H](CCCNC(=N)N)C(=O)N[C@@H](CC(C)C)C(=O)N[C@@H](CCC(N)=O)C(=O)N[C@@H](CCC(=O)O)C(=O)N[C@@H](CCCCN)C(=O)N[C@@H](CCC(=O)O)C(=O)N[C@@H](CCCNC(=N)N)C(=O)N[C@@H](CC(N)=O)C(=O)N[C@@H](CCCCN)C(=O)NCC(=O)N[C@@H](CCC(N)=O)C(=O)N[C@@H](CCO)C(=O)O)[C@@H](C)O [(11) -Glu--Leu--Hse] (H-FVPIFTYGELERLQEKERNKGQ[hSer]-OH)	
